Values joined by “and” are separate entries in the source; they are usually repeats but may differ in a detail not shown here. Equal values may be shown once. Read-outs that look alike come from different tables or passages of the source.
Tests used:
TNF [1] = target: T1, TNF (Homo sapiens, UniProt P01375); assay: Biacore kinetics of binding; parameters: Human TNF (CID2043, UniProt P01375 residues 77–233); 6XHis-Smt3 (N, cleaved yes); host or cells: E. coli TOP10; details: SPR single-cycle; linked TNF with n-terminal HKH tag; read-out: KD
Description: Surface plasmon resonance using a Biacore T100/T200 was used to measure the association rate constant (ka), the dissociation rate constant (kd) and the affinity (KD) of compounds. TNF (VCID 2043 Beryllium) was immobilised to approximately 5 kRU as described above and equilibrated for at least 5 h in HBS P + buffer with 5% DMSO. UCB-6876 was serially diluted from 187.5 µM, flowing over the immobilised TNF at 50 µL/min for 3 min before allowing full dissociation under flow for at least 6 min. […] […] The compounds were allowed to dissociate for 2 h under flow.
Target sequence in this assay (P01375 with tags, fused parts or gaps): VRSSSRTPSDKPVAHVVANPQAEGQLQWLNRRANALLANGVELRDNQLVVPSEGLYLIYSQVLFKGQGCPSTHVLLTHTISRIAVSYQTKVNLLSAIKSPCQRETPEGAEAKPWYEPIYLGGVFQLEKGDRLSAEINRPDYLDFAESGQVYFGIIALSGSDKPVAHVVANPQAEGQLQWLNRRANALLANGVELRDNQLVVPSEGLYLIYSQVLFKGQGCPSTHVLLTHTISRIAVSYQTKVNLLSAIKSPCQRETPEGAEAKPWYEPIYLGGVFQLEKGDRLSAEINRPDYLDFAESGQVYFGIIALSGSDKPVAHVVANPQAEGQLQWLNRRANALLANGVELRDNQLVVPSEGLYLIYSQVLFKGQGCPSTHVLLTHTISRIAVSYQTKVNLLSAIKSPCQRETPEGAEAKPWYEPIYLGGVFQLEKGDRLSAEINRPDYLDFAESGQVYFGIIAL

Mouse free fraction = assay type: in vitro ADME; details: read-out: Mouse free fraction (Fu)
TNF [2] = target: T1, TNF; assay: Biacore binding with and without non-ionic detergent; parameters: stabilise an asymmetrical form of the soluble TNF trimer; details: 0.01% v/v Triton X-100 and 0.025% v/v Tween-80; Biacore T200
Description: Experiments to show any effect of addition of non-ionic detergent were performed on a Biacore, with human TNF on the solid phase and compounds in solution phase in the presence and absence of 0.01% v/v Triton X-100 and 0.025% v/v Tween-80.
Three Biacore T200s were treated with sodium hypochlorite to remove any traces of detergent. Each machine was equilibrated in either HBS with no detergent (control), HBS:
Tween-P80 (0.025% v/v) or HBS: Triton X-100 (0.01% v/v). Human TNF was tethered to ~ 2000 RU before equilibration in the equivalent control or detergent buffers plus 1% DMSO. […]
were fitted to a BIAevaluation T200 1:1 algorithm and the fitted data shown. […]
Target sequence in this assay (P01375 77-233 limits assumed): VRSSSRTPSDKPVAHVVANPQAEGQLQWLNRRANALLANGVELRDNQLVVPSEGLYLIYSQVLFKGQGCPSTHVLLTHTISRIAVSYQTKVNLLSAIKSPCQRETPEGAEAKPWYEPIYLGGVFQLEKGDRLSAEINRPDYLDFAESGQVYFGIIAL

TNF [3] = target: T1, TNF; assay: Thermal denaturation assay of thermal stability; assay type: binding; parameters: stabilise an asymmetrical form of the soluble TNF trimer
Description: A fluorescence probed thermal denaturation assay was performed to assess the effect of the compounds on the thermal stability of TNF (or other members of the TNF family) as a measure of compound binding. The reaction mixture contained 5 µL of 30× SYPRO® Orange dye (Invitrogen) and 5 µL of TNF (at 1 mg/mL), 37.5 μL PBS, pH 7.4 and 2.5 μL of compound (at 2 mM in DMSO). The mixture (10 µL) was dispensed in quadruplicate into a 384 PCR optical well plate and was run on a 7900HT Fast Real-Time PCR System ([…]). The PCR System heating device was set at 20 °C to 99 °C with a ramp rate of 1.1 °C min^−1; fluorescence changes in the wells were monitored by a CCD device. The fluorescence intensity increase was plotted as a function of temperature and the Tm calculated as the midpoint of this denaturation curve (determined as the point of inflection).
Target sequence in this assay (P01375 77-233 limits assumed): as above

[4] = Blood exposure of UCB-9260 in the mouse models; assay type: in vivo; details: for concentration at 1 h: zymosan model
[5] = 150mg/kg, CAIA model, individual mice

Cc1ccc(C)c(Cn2c(C(O)c3ccncc3)nc3ccc(-c4cnn(C)c4)cc32)c1 (centres unmarked) [UCB-9260]
Kd (TNF [1]): 13 nM | fraction unbound (Mouse free fraction): 0.024 | effect of non-ionic detergents on binding to human TNF (TNF [2]): does not alter the binding | Tm difference (hTNF + compound) - (hTNF+DMSO) (TNF [3]; DMSO 5%): 17.3 °C | Tm (mean ± SD) (TNF [3]; hTNF + DMSO (5%) + compound, n=4 replicates): 78.0 ± 0.7 °C | Tm1 Average (TNF [3]; inhouse hTNF 5% DMSO + compound, 4 wells): 78 °C | Unreviewed - Tm1 (TNF [3]; single wells, inhouse hTNF 5% DMSO + compound, listed as 1449260-000, in °C): 77.1 and 77.9 and 78.1 and 78.7 | concentration at 0.5 h ([4]; 10mg/kg, human TNF neutrophilia model, individual mice, 0.5h post dose, read-out: Total exposure): 474.6 nM and 924.2 nM and 1089.9 nM | concentration at 0.5 h ([4]; 10mg/kg, human TNF neutrophilia model, individual mice, read-out: Free exposure): 26.2 nM and 11.4 nM and 22.2 nM | concentration at 0.5 h ([4]; 10mg/kg, mouse TNF neutrophilia model, individual mice, 0.5h post dose, read-out: Total exposure): 1244.4 nM and 1494.9 nM | concentration at 0.5 h ([4]; 10mg/kg, mouse TNF neutrophilia model, individual mice, read-out: Free exposure): 29.2 nM and 29.9 nM | concentration at 1 h ([4]; 10mg/kg, individual mice, read-out: free exposure 1h post dose): 2.5 nM and 2.4 nM and 0.6 nM and 1.0 nM and 1.8 nM and 4.0 nM and 2.1 nM and 2.3 nM | concentration at 1 h ([4]; 10mg/kg, individual mice, read-out: total exposure 1h post dose): 102.2 nM and 99.4 nM and 24.6 nM and 40.4 nM and 74.6 nM and 166.9 nM and 86.4 nM and 96.3 nM | concentration at 0.5 h ([4]; 30mg/kg, human TNF neutrophilia model, individual mice, 0.5h post dose, read-out: Total exposure): 10561.3 nM and 11259.5 nM and 3572.5 nM | concentration at 0.5 h ([4]; 30mg/kg, human TNF neutrophilia model, individual mice, read-out: Free exposure): 85.7 nM and 253.5 nM and 270.2 nM | concentration at 0.5 h ([4]; 30mg/kg, mouse TNF neutrophilia model, individual mice, 0.5h post dose, read-out: Total exposure): 7504.0 nM and 10604.5 nM | concentration at 0.5 h ([4]; 30mg/kg, mouse TNF neutrophilia model, individual mice, read-out: Free exposure): 239.5 nM and 180.1 nM | concentration at 1 h ([4]; 30mg/kg, individual mice, read-out: free exposure 1h post dose): 92.9 nM and 80.2 nM and 78.8 nM and 67.6 nM and 46.9 nM and 54.7 nM and 89.2 nM | concentration at 1 h ([4]; 30mg/kg, individual mice, read-out: total exposure 1h post dose): 3868.9 nM and 3340.4 nM and 3284.9 nM and 2814.8 nM and 1955.1 nM and 2278.1 nM and 3715.9 nM | concentration at 0.5 h ([4]; 100mg/kg, human TNF neutrophilia model, individual mice, 0.5h post dose, read-out: Total exposure): 23486.3 nM and 36904.4 nM | concentration at 0.5 h ([4]; 100mg/kg, human TNF neutrophilia model, individual mice, read-out: Free exposure): 698.5 nM and 563.7 nM | concentration at 0.5 h ([4]; 100mg/kg, mouse TNF neutrophilia model, individual mice, 0.5h post dose, read-out: Total exposure): 80513.8 nM and 31681.7 nM | concentration at 0.5 h ([4]; 100mg/kg, mouse TNF neutrophilia model, individual mice, read-out: Free exposure): 760.4 nM and 1932.3 nM | concentration at 1 h ([4]; 100mg/kg, individual mice, read-out: free exposure 1h post dose): 700.8 nM and 684.7 nM and 194.3 nM and 787.1 nM and 495.2 nM and 309.3 nM and 1017.0 nM and 852.7 nM | concentration at 1 h ([4]; 100mg/kg, individual mice, read-out: total exposure 1h post dose): 29201.0 nM and 28529.7 nM and 8095.9 nM and 32795.2 nM and 20631.9 nM and 12886.1 nM and 42373.7 nM and 35527.1 nM | Cave post 1st dose (free) ([4]; 150 mg/kg B.I.D., CAIA model): 307 ± 74 nM | Cave post 1st dose total ([4]; 150 mg/kg B.I.D., CAIA model): 12,808 ± 3,070 nM | Free UCB-9260, 1 hour [4, 5]: 535.0 nM and 406.9 nM and 100.9 nM and 971.5 nM and 479.3 nM | Free UCB-9260, 6 hour [4, 5]: 368.0 nM and 6.0 nM and 50.3 nM and 428.5 nM and 99.9 nM | Total UCB-9260, 1 hour [4, 5]: 22.292 µM and 16.9554 µM and 4.206 µM and 40.4784 µM and 19.9726 µM and 13.3543 µM | Total UCB-9260, 6 hour [4, 5]: 15.3347 µM and 0.2521 µM and 2.096 µM and 17.8525 µM and 4.1624 µM and 34.4762 µM | concentration at 0.5 h ([4]; 300mg/kg, human TNF neutrophilia model, individual mice, 0.5h post dose, read-out: Total exposure): 57489.1 nM and 49482.4 nM | concentration at 0.5 h ([4]; 300mg/kg, human TNF neutrophilia model, individual mice, read-out: Free exposure): 996.6 nM and 1379.7 nM | concentration at 0.5 h ([4]; 300mg/kg, mouse TNF neutrophilia model, individual mice, 0.5h post dose, read-out: Total exposure): 47166.3 nM and 48883.6 nM | concentration at 0.5 h ([4]; 300mg/kg, mouse TNF neutrophilia model, individual mice, read-out: Free exposure): 1511.9 nM and 1132.0 nM | concentration at 1 h ([4]; 300mg/kg, individual mice, read-out: free exposure 1h post dose): 551.7 nM and 816.2 nM and 450.0 nM and 187.4 nM and 584.7 nM and 1013.9 nM and 538.9 nM and 1275.4 nM | concentration at 1 h ([4]; 300mg/kg, individual mice, read-out: total exposure 1h post dose): 22987.2 nM and 34009.1 nM and 18750.9 nM and 7806.7 nM and 24360.9 nM and 42244.6 nM and 22455.4 nM and 53141.6 nM | concentration at 0.5 h ([4]; Balb/c, mouse, blood, oral, 10 mg/kg, 10 mg/kg p.o., human TNF neutrophilia model, mean n=3 ± s.e.m., read-out: Blood concentration 0.5h post dose total): 830 ± 184 nM
